Laboratory results: patent US8785160B2, “Prebiotic formulations and methods of use” (Ritter Pharmaceuticals, Inc., priority 2009, dated 2014)

Test system: Bifidobacterium species
Assay: Comparative growth of Bifidobacterium species and strains on 2% carbohydrate in scratch MRS
Assay type: cell-based
Settings: scratch MRS + 2% carbohydrate, 37 C

## OC[C@H]1O[C@@H](O[C@H]2[C@H](O)[C@@H](O)C(O)O[C@@H]2CO)[C@H](O)[C@@H](O)[C@H]1O (stereo partly shown) [lactose]
  comparative growth of Bifidobacterium species on four carbohydrate sources (glucose, lactose, GOS1, GOS2): none of the Bifidobacterium strains used in these experiments grew on lactose
